These results are taken from ChEMBL document CHEMBL5241080, “Quinoline anticancer agents active on DNA and DNA-interacting proteins: From classical to emerging therapeutic targets” (Eur J Med Chem, 2021).

SMILES strings stand for the structures.

One assay relates to CFPAC-1. Nature of the assay: Antiproliferative activity against human CFPAC-1 cells. It is filed as functional, cell-based.
The target of assay [1] is Histone-lysine N-methyltransferase SMYD3 (Homo sapiens, UniProt Q9H7B4). Description: Inhibition of SMYD3 (unknown origin).
Sequence of Histone-lysine N-methyltransferase SMYD3 (Q9H7B4 whole entry): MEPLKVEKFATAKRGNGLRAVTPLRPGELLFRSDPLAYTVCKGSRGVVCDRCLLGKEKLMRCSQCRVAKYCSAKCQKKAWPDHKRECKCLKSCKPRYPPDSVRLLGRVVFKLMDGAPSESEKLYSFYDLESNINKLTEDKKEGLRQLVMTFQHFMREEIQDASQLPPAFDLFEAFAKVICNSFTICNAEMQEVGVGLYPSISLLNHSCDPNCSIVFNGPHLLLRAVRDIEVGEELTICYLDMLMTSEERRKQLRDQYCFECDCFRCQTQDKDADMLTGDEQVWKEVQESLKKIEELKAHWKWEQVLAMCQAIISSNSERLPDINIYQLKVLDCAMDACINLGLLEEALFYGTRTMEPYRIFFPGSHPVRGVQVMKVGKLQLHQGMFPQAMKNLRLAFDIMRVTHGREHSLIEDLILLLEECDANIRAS
The test system of assay [2] is HCT-116. Nature of the assay: Antiproliferative activity against human HCT-116 cells. The class given is functional, cell-based.
The next assay deals with HepG2. Description: Antiproliferative activity against human HepG2 cells. The class given is functional, cell-based.
In another assay the test system is A549. Description: Antiproliferative activity against human A549 cells. The class given is functional, cell-based.
In the next assay the test system is HPAC. Description: Antiproliferative activity against human HPAC cells. The class given is functional, cell-based.
In a further assay the test system is HT-1080. Nature of the assay: Antiproliferative activity against human HT-1080 cells assessed as reduction cell viability incubated for 48 hrs by MTT assay. The class given is functional, cell-based. As to conditions: HT-1080, 48 h. (In general: Tetrazolium assays rely on reduction of a dye to a coloured formazan, in cell work by metabolically active cells.)

Assay [3] has as its target T1, DNA (cytosine-5)-methyltransferase 3A (Homo sapiens, UniProt Q9Y6K1). Nature of the assay: Inhibition of C-terminal biotin-labelled human DNMT3A by multilabel plate reader analysis.
The next assay deals with MCF7. Description: Antiproliferative activity against human MCF7 cells assessed as reduction cell viability incubated for 48 hrs by MTT assay. It is filed as functional, cell-based. The settings on record: MCF7, 48 h.
The next assay has as its system KG-1. Nature of the assay: Antiproliferative activity against human KG-1 cells. It is filed as functional, cell-based.
Assay [4] deals with T1, DNA (cytosine-5)-methyltransferase 3A. Description: Inhibition of DNMT3A (unknown origin).
For a further assay, the system named is M14. Nature of the assay: Antiproliferative activity against human M14 cells assessed as reduction cell viability incubated for 48 hrs by MTT assay. It is filed as functional, cell-based. As to conditions: M14, 48 h.
In assay [5] the target is DNA (cytosine-5)-methyltransferase 1 (Homo sapiens, UniProt P26358). Description: Inhibition of his-tagged human DNMT1 by scintillation counter analysis.
Sequence of DNA (cytosine-5)-methyltransferase 1 (P26358 whole entry): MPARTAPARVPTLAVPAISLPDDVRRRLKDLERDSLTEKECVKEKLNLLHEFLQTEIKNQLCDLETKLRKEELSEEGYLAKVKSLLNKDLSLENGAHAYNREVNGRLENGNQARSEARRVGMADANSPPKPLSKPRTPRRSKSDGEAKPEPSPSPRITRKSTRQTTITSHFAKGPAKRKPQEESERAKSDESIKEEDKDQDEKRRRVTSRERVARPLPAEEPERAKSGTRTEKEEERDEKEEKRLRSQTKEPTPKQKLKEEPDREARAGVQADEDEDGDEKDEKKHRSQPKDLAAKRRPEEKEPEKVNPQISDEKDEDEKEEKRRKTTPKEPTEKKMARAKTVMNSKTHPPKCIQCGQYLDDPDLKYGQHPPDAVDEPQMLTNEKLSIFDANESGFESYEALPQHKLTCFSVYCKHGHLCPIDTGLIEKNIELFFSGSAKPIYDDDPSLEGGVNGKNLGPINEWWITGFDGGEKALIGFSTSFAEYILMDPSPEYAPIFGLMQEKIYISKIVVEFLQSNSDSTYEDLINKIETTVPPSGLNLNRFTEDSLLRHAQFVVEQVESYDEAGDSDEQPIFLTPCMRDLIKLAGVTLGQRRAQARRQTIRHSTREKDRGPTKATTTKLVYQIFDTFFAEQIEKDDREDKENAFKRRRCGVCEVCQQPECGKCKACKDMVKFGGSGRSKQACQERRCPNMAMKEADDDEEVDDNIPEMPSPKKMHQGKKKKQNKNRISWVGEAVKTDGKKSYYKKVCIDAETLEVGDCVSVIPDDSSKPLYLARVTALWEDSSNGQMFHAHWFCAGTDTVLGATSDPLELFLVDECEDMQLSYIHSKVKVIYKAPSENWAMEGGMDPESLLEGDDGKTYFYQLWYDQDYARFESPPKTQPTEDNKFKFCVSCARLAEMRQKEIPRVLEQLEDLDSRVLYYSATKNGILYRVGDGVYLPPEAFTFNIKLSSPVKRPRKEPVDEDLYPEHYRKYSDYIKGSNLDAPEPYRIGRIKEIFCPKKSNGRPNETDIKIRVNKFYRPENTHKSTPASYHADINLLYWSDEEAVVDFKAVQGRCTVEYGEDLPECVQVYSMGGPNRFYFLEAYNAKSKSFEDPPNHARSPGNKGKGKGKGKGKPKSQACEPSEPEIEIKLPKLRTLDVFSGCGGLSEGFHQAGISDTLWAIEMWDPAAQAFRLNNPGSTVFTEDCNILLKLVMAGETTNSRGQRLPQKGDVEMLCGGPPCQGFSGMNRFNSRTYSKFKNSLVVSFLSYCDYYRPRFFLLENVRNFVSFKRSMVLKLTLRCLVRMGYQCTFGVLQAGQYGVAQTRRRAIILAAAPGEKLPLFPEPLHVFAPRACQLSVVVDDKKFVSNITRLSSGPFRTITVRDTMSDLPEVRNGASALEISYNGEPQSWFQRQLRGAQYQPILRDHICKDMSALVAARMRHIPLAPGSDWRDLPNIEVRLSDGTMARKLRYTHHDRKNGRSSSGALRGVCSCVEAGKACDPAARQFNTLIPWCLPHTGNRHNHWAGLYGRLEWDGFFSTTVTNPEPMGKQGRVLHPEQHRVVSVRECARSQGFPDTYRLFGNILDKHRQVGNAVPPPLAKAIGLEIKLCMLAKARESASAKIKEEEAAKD
Another assay relates to HeLa. Nature of the assay: Antiproliferative activity against human HeLa cells assessed as reduction cell viability incubated for 48 hrs by MTT assay. It is filed as functional, cell-based.
The subject of a further assay is NCI-H1299. Nature of the assay: Antiproliferative activity against human NCI-H1299 cells assessed as reduction cell viability incubated for 48 hrs by MTT assay. It is filed as functional, cell-based. The settings on record: NCI-H1299, 48 h.
For another assay, the system named is HL-60. Description: Antiproliferative activity against human HL-60 cells assessed as reduction cell viability incubated for 48 hrs by MTT assay. As to conditions: HL-60, 48 h. It is filed as functional, cell-based.
Assay [6] relates to HCT-116. Nature of the assay: Antiproliferative activity against human HCT-116 cells assessed as reduction cell viability incubated for 48 hrs by MTT assay. The class given is functional, cell-based. As to conditions: HCT-116, 48 h.

T1 sequence (Q9Y6K1 whole entry, looked up): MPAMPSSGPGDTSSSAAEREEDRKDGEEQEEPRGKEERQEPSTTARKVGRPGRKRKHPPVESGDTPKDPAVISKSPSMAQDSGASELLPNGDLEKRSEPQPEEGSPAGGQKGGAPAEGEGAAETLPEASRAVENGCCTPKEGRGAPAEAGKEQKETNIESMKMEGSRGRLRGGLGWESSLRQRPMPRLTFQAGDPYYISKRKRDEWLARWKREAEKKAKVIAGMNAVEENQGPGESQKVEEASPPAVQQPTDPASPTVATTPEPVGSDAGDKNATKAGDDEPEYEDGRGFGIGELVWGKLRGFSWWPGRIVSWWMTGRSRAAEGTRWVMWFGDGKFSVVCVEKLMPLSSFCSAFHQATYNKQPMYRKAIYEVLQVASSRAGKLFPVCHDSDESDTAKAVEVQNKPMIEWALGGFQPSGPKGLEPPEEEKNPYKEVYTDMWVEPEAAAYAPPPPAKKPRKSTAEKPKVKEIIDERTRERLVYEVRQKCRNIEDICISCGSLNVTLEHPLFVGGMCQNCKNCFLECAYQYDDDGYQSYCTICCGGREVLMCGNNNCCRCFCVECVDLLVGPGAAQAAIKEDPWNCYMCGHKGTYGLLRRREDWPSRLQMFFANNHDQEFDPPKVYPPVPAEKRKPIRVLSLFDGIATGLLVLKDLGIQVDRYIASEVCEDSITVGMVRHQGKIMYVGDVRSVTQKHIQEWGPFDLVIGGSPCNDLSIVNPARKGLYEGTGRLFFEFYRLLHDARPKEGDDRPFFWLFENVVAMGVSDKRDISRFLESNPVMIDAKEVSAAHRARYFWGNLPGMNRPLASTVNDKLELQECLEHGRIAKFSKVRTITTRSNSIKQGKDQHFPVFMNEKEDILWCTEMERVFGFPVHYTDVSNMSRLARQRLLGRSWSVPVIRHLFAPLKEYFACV

Broadly, the IC50 is the concentration that inhibits the measured activity by half. Regarding `CCCOC(=O)N1CCN(C(=O)c2ccc3c(Cl)c4c(nc3c2)CCC(CCN)C4)CC1` (configuration not stated), the half-inhibitory concentration (IC50) turned out to be 11 µM in the assay with CFPAC-1; 0.04 µM in assay [1]; 11 µM in the assay on HCT-116 [2]; 11 µM in the assay with HepG2; 11 µM with A549; 11 µM in the assay on HPAC.

As for `O=C(Nc1ccc(Nc2ccnc3ccccc23)cc1)c1ccc(Nc2ccncc2)cc1`, the IC50 in the assay with HT-1080 stood at 0.5 µM; in [3], 6 µM; in the assay on MCF7 it was 4.1 µM; with KG-1 it was 0.96 µM; in assay [4] it was 0.9 µM; in the assay on M14, 0.5 µM. Besides, the half-maximal inhibitory concentration (IC50) worked out at 23 µM in [5]; 0.14 µM in the assay with HeLa; 14.7 µM in the assay on NCI-H1299; 0.2 µM in the assay with HL-60; 1 µM with HCT-116 [6].
